Results on 23 molecules are retold here after patent US20230104283A1, “JNK INHIBITOR, AND PHARMACEUTICAL COMPOSITION AND USE THEREOF” (WUHAN LL SCIENCE AND TECHNOLOGY DEVELOPMENT CO. , LTD, priority 2019, published 2023).

Broadly, the IC50 is the concentration that inhibits the measured activity by half. Read a low IC50 as greater potency in that assay.

The test system of series [1] is RAW264.7 phosphorylated c-Jun (Ser63). Put plainly: RAW264.7 phosphorylated c-Jun whole cell assay. It is filed as cell-based. The note with it: Mus musculus; cytological assay, activity level; lipopolysaccharide-activated RAW264.7 cells, phospho-c-Jun (Ser63) ELISA. Here is the method: RAW264.7 (ATCC TIB-71) cells were purchased from BeNa Culture Collection and maintained in a high-glucose DMEM medium (Gibco) containing 10% fetal bovine serum (Gibco) and 1% penicillin-streptomycin (Gibco). All cells were cultured at 37° C. in 95% air and 5% CO2. All cells were seeded into 120 μL of cell culture medium in a 96-well plate at a density of 2×10^5 cells per well. The stock solution of compound (15 mM) was serially diluted in DMSO (Sigma) and further diluted in growth medium, and it was then added at 15 μL per well as a 10× concentrated solution, well mixed with the cells and incubated with the cells for 30 min. Concentration of the compound vehicle (DMSO) in each well was 0.2%. After incubation for 30 min, the cells were activated with […] lipopolysaccharide (Sigma). Lipopolysaccharide was added to the growth medium as a 10× concentrated solution at 15 μL per well. The cell plate was incubated for 1 h, and then all the medium was removed. The level of C-Jun protein with phosphorylation of serine at site 63 was measured using the whole cell lysate kit-phosphorylated C-Jun assay (PathScan® Phospho-c-Jun (Ser63) Sandwich ELISA Kit) (CST, 7145C) according to the manufacturer's instructions.
On the technique in general: In an ELISA, binding on a coated surface is turned into a signal by an enzyme label.

A further series deals with T1, JNK1 kinase (Homo sapiens, UniProt P45983).
T1 construct: purchased Carna Biosciences 04-163
The experiment in a line: JNK1 activity screening (time-resolved fluorometric HTRF kinase assay). Format: biochemical. The note with it: enzymatic assay, activity level. Here is the method:
JNK1 activity screening. JNK1 activity was detected using a 96-well (Cisbio, 66PL96025) time-resolved fluorometric assay. The JNK1 assay was conducted in the following assay buffer: 10 mM MgCl2 (Sigma, M1028), 1 mM MnCl2 (Sigma, M1787), 1 mM DTT (Sigma, D0632) and 1× Enzymatic buffer/kinase (Cisbio, 62EZBFDC). By using the assay buffer, 3 μL of 0.1 ng/μL JNK1 kinase (Carna Biosciences, 04-163) was added to a 96-well microplate, and then 4 μL of a compound diluted appropriately (with a DMSO content of 2.5%) was added. The resulting mixture was incubated at room temperature for 0.5 h. To start the reaction, the assay buffer was used to mix 0.003 μM ATP (Aladdin, A7699) and 30 μM substrate ATF2-GST fusion (Cisbio, 64CUS000AFPEB), and 3 μL of the mixed solution was added to the microplate. The resulting mixture was incubated at room temperature for 2.5 h. HTRF detection buffer ([…], 62SDBRDD) was used then to prepare a mixture of 5 μg/mL MAb Anti GST-XL665 (Cisbio, 61GSTXLA) and 0.045 μg/mL PAb Anti-phospho ATF2-K (Cisbio, 61P12KAZ), and 10 μL of the mixture was added to the plate to terminate the reaction. After incubation for about 12 h, the plate was read on a Perkin-Elmer Envision reader.

The nature of series [2]: Stability observed during preparation. It is filed as physicochemical. The note with it: isolated compound; acid, base, water vapor. The method, then: (1R,3R,4R)-5-amino-2-methylcyclohexanol hydrochloride (57 mg, 0.342 mmol) and DIEA (132 mg, 1.026 mmol) were added to a solution of compound T041-3 (100 mg, 0.342 mmol) in isopropanol (3 mL) at room temperature with stirring. After stirring at room temperature for 3 h, the reaction was completed. The reaction mixture was added with water and extracted with ethyl acetate, and the organic phase was washed with saturated brine and dried over anhydrous sodium sulfate. The reaction mixture was concentrated under reduced pressure, purified by preparative high performance liquid chromatography (ammonium bicarbonate method) and lyophilized to give 40 mg of a white solid with a yield of 34%.

Structures are written as SMILES.

T1 sequence (P45983 whole entry): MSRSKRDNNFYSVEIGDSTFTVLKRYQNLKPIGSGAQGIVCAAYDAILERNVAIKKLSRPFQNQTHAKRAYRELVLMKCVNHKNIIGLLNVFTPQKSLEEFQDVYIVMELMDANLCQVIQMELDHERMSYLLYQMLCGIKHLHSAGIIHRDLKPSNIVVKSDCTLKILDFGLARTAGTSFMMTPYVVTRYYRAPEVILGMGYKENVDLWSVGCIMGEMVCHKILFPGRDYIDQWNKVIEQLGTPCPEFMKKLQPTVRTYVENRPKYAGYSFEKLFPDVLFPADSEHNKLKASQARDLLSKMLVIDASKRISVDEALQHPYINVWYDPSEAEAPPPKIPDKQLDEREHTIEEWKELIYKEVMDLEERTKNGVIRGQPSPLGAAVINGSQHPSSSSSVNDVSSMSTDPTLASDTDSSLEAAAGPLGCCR

As for `C[C@@H]1CC[C@@H](Nc2nc(OC(C)(C)C)ncc2Br)C[C@H]1O` [Compound T041, (1R,2R,5R)-5-((5-bromo-2-(tert-butoxy)pyrimidin-4-yl)amino)-2-methylcyclohexan-l-ol], the 50% inhibitory concentration (IC50) in series [1] is greater than 1000 nM; at JNK1 kinase it was 500 to 1000 nM. Besides, in series [2], the “stability of the compound” value is “unstable due to susceptibility to acid, base, water vapor and the like”.

As for `C[C@@H]1CC[C@@H](Nc2cc(NC(C)(C)C)ncc2C#N)C[C@H]1O` [Compound T044, 6-(tert-butylamino)-4-(((1R,3R,4R)-3-hydroxy-4-methylcyclohexyl)amino) nicotinonitrile], the 50% inhibitory concentration (IC50) (in series [1]; against JNK1 kinase) was greater than 1000 nM in each case.

With `C[C@@H]1CC[C@@H](Nc2nc(O[C@H]3CC[C@H](O)CC3)ncc2C(N)=O)C[C@H]1O` [Compound T039, 4-(((1R,3R,4R)-3-hydroxy-4-methylcyclohexyl)amino)-2-(((1R, 4R)-4-hydroxycyclohexyl)oxy) pyrimidine-5-carboxamide], the values for the IC50 (in series [1]; at JNK1 kinase) were greater than 1000 nM and 100 to 500 nM, respectively.

On to `Cc1cnc(NC(C)(C)C)nc1N[C@@H]1CC[C@@H](C)[C@H](O)C1` [Compound T014, (1R,2R,5R)-5-((2-(tert-butylamino)-5-methylpyrimidin-4-yl)amino)-2-methylcyclohex-1-ol], for which the 50% inhibitory concentration (IC50) (in series [1]; on JNK1 kinase) was greater than 1000 nM throughout.

On to `C[C@@H]1CC[C@@H](Nc2nc(Nn3cnnc3)ncc2C(N)=O)C[C@H]1O` [Compound T004, 2-((4H-1,2,4-triazol-4-yl)amino)-4-(((1R, 3R,4R)-3-hydroxy-4-methylcyclohexyl)amino)pyrimidine-5-carboxamide], for which the half-maximal inhibitory concentration (IC50) (in series [1]; against JNK1 kinase) was greater than 1000 nM in each case.

`CC(C)(C)Nc1ncc(C(N)=O)c(NC2CCCN(C(=O)CC#N)C2)n1` (centres unmarked) [Compound T007, 2-(tert-butylamino)-4-((1-(2-cyanoacetyl)piperidin-3-yl)amino)pyrimidine-5-carboxamide]: the IC50 (in series [1]; at JNK1 kinase) was greater than 1000 nM in each case.

As for `COc1ccc(CNc2ncc(C(N)=O)c(N[C@@H]3CC[C@@H](C)[C@H](O)C3)n2)cc1` [Compound T074, 4-(((1R,3R,4R)-3-hydroxy-4-methylcyclohexyl)amino)-2-((4-methoxybenzyl)amino)pyrimidine-5-carboxamide], the IC50 (in series [1]; against JNK1 kinase) was less than 100 nM each time.

As to `C[C@@H]1CC[C@@H](Nc2cc(NC3CCCC3O)ncc2C(N)=O)C[C@H]1O` (stereo partly drawn) [Compound T055, 4-(((1R,3R,4R)-3-hydroxy-4-methylcyclohexyl)amino)-6-((2-hydroxycyclopentyl)amino)nicotinamide], the half-inhibitory concentration (IC50) (in series [1]; against JNK1 kinase) was greater than 1000 nM throughout.

Consider `C[C@@H]1CC[C@@H](Nc2cc(NC3CCC3)ncc2C(N)=O)C[C@H]1O` [Compound T049, 6-(cyclobutylamino)-4-(((1R,3R,4R)-3-hydroxy-4-methylcyclohexyl)amino) nicotinamide], for which the figures for the IC50 (in series [1]; against JNK1 kinase) were greater than 1000 nM and 500 to 1000 nM, respectively.

On to `C[C@@H]1CC[C@@H](Nc2nc(NC(C)(C)C)ncc2S(N)(=O)=O)C[C@H]1O` [Compound T031, 2-(tert-butylamino)-4-(((1R,3R,4R)-3-hydroxy-4-methylcyclohexyl)amino) pyrimidine-5-sulfamide], for which the concentration for half-maximal inhibition (IC50) (in series [1]; on JNK1 kinase) was greater than 1000 nM throughout.

In the case of `C[C@@H]1CC[C@@H](Nc2nc(OC3CC3)ncc2C(N)=O)C[C@H]1O` [Compound T042, 2-cyclopropoxy-4-(((1R,3R,4R)-3-hydroxy-4-methylcyclohexyl)amino) pyrimidine-5-carboxamide], the IC50 in series [1] was greater than 1000 nM; against JNK1 kinase it was 500 to 1000 nM.

`C[C@@H]1CC[C@@H](Nc2nc(NC(C)(C)C)ncc2C(=N)N)C[C@H]1O` [Compound T003, 2-(tert-butylamino)-4-(((1R,3R,4R)-3-hydroxy-4-methylcyclohexyl)amino) pyrimidine-5-carboximidamide]: the IC50 in series [1] is greater than 1000 nM; on JNK1 kinase it was 500 to 1000 nM.

With `C[C@@H]1CC[C@@H](Nc2cc(NC3C4C[C@H]43)ncc2C(N)=O)C[C@H]1O` (stereo partly drawn) [Compound T060, 6-(((1R,2R)-bicyclo[1 1.0]butan-2-yl)amino)-4-(((1R,3R,4R)-3-hydroxy-4-methylcyclohexyl)amino)nicotinamide], the IC50 (in series [1]; on JNK1 kinase) was greater than 1000 nM throughout.

On to `C[C@@H]1CC[C@@H](Nc2nc(Nc3ccc(N4CCN(C)CC4)cc3)ncc2C(N)=O)C[C@H]1O` [Compound T073, 4-(((1R,3R,4R)-3-hydroxy-4-methylcyclohexyl)amino)-2-((4-(4-methylpiperazin-1-yl)phenyl)amino)pyrimidine-5-carboxamide], for which the IC50 in series [1] was 100 to 500 nM; against JNK1 kinase it was less than 100 nM.

For `C[C@@H]1CC[C@@H](Nc2nc(NC(C)(C)C)ncc2O)C[C@H]1O` [Compound T032, 2-(tert-butylamino)-4-(((1R,3R,4R)-3-hydroxy-4-methylcyclohexyl)amino) pyrimidine-5-ol], the IC50 (in series [1]; at JNK1 kinase) was greater than 1000 nM each time.

Consider `CC(C)(C)Nc1ncc(C(N)=O)c(Nc2cccc(C(=O)O)c2)n1` [Compound T011, 3-((2-(tert-butylamino)-5-carbamoylpyrimidin-4-yl)amino) benzoic acid], for which the IC50 in series [1] is greater than 1000 nM; against JNK1 kinase, 500 to 1000 nM.

As to `CC(C)(C)Nc1ncc(C(N)=O)c(NC2CCCN(C(=O)CC(=O)O)C2)n1` (stereo not drawn) [Compound T008, 3-(3-((2-(tert-butylamino)-5-carbamoylpyrimidin-4-yl)amino)piperidin-l-yl)-3-oxopropanoic acid], the IC50 (in series [1]; against JNK1 kinase) was greater than 1000 nM throughout.

`CC(C)C(=O)c1cnc(NC(C)(C)C)nc1N[C@@H]1CC[C@@H](C)[C@H](O)C1` [Compound T070, 1-(2-(tert-butylamino)-4-(((1R,3R,4R)-3-hydroxy-4-methylcyclohexyl)amino)pyrimidin-5-yl)-2-methylpropan-1-one]: the values for the IC50 (in series [1]; at JNK1 kinase) were greater than 1000 nM and 500 to 1000 nM, respectively.

For the molecule `CC#Cc1cnc(NC(C)(C)C)nc1N[C@@H]1CC[C@@H](C)[C@H](O)C1` [Compound T065, (1R,2R,5R)-5-((2-(tert-butylamino)-5-(prop-1-yn-1-yl)pyrimidin-4-yl)amino)-2-methylcyclohexan-1-ol], the IC50 (in series [1]; at JNK1 kinase) was greater than 1000 nM in each case.

For `C[C@@H]1CC[C@@H](Nc2cc(NC3CCCCC3)ncc2C(N)=O)C[C@H]1O` [Compound T054, 6-(cyclohexylamino)-4-(((1R,3R,4R)-3-hydroxy-4-methylcyclohexyl)amino) nicotinamide], the IC50 (in series [1]; at JNK1 kinase) was greater than 1000 nM throughout.

Turning to `C[C@@H]1CC[C@@H](Nc2nc(N3CCNC(=O)C3)ncc2C(N)=O)C[C@H]1O` [Compound T023, 4-(((1R,3R,4R)-3-hydroxy-4-methylcyclohexyl)amino)-2-(3-oxopiperazin-1-yl)pyrimidine-5-carboxamide], the IC50 is greater than 1000 nM in series [1] and 500 to 1000 nM against JNK1 kinase.

Regarding `C[C@@H]1CC[C@@H](Nc2nc(N3CCOCC3)ncc2C(N)=O)C[C@H]1O` [Compound T022, 4-(((1R,3R,4R)-3-hydroxy-4-methylcyclohexyl)amino)-2-morpholinopyrimidine-5-carboxamide], the IC50 in series [1] was greater than 1000 nM; on JNK1 kinase, 500 to 1000 nM.

Turning to `C[C@@H]1CC[C@@H](Nc2nc(Nc3ccc(S(C)(=O)=O)cc3)ncc2C(N)=O)C[C@H]1O` [Compound T072, 4-(((1R,3R,4R)-3-hydroxy-4-methylcyclohexyl)amino)-2-((4-(methylsulfonyl)phenyl)amino) pyrimidine-5-carboxamide], the IC50 (in series [1]; at JNK1 kinase) was less than 100 nM throughout.
